Data taken from patent US20200345645A1, “COMPOSITIONS COMPRISING INDIGO AND/OR AN INDIGO DERIVATIVE AND METHODS OF USE THEREOF” (Azora Therapeutics, Inc., priority 2019, published 2020).
Read-outs that look alike come from different tables or passages of the source.

Experiments:
[1] = Release of indirubin into fasted-state simulated intestinal fluid (FaSSIF), HPLC; type: physicochemical; details: for Amount of indirubin in % Q (measured amount in solution divided by theoretical maximum) / Amount of indirubin in solution: FaSSIF pH 6.5, 37° C., 2 mg total indirubin in 500 mL; for Amount of indirubin in solution: mean of six replicates
Experimental: Additional solid amorphous dispersions of synthetic indirubin in six different hydrophilic carrier polymers-povidone, PVAc-PVCap-PEG, (SOLUPLUS®), copovidone, HPMC-AS, HPMCP and polyvinyl acetate phthalate (PVAP)—were prepared for a further study, as described in Example 15. In this study, dispersions with indirubin to polymer ratios of 1:9 or 0.5:9.5 were prepared, and the release of indirubin into fasted-state simulated intestinal fluid was determined. For comparison, Indigo naturalis and crystalline synthetic indirubin were also tested. The amount of indirubin in fasted-state simulated intestinal fluid was determined by HPLC for samples of the fluid taken. The mean amount of indirubin in solution at each time point was determined, and is shown in Table 1 in units of μg/L and in Table 2 as a percentage, referred to a % Q, of measured amount (mass) of indirubin in solution divided by the theoretical maximum amount (mass) of indirubin in solution.
Solid amorphous dispersions of synthetic indirubin in six different hydrophilic carrier polymers-povidone, PVAc-PVCap-PEG, (SOLUPLUS®), copovidone, HPMC-AS, HPMCP and polyvinyl acetate phthalate (PVAP) with indirubin to polymer ratios of 1:9 or 0.5 to 9.5 were prepared as described in Example 13. For comparison, Indigo naturalis and crystalline synthetic indirubin were also tested. All test articles were normalized to a total indirubin of 2 mg and added to 500 mL of fasted-state simulated intestinal fluid (FaSSIF) medium consisting of 3 mM taurocholate, 0.75 mM phospholipids, 148 mM sodium, 106 mM chloride, and 29 mM phosphate at pH 6.5. Six replicates of each test article were assessed under the following testing conditions: mixing with USP #2 paddles at 100 RPM at 37° C. with sampling of 5 mL at each time point and filtration through a 10 μm filter. […] The mean amount of indirubin in solution at each time point was determined, and is shown in Table 1 in units of μg/L and in Table 2 as a percentage, referred to a % Q, of measured amount (mass) of indirubin in solution divided by the theoretical maximum amount (mass) of indirubin in solution.

[2] = molecular target: T1, aryl hydrocarbon receptor (Homo sapiens, UniProt P35869); details: background statement, "It is known", cited from earlier work
T1 sequence (P35869 11-848): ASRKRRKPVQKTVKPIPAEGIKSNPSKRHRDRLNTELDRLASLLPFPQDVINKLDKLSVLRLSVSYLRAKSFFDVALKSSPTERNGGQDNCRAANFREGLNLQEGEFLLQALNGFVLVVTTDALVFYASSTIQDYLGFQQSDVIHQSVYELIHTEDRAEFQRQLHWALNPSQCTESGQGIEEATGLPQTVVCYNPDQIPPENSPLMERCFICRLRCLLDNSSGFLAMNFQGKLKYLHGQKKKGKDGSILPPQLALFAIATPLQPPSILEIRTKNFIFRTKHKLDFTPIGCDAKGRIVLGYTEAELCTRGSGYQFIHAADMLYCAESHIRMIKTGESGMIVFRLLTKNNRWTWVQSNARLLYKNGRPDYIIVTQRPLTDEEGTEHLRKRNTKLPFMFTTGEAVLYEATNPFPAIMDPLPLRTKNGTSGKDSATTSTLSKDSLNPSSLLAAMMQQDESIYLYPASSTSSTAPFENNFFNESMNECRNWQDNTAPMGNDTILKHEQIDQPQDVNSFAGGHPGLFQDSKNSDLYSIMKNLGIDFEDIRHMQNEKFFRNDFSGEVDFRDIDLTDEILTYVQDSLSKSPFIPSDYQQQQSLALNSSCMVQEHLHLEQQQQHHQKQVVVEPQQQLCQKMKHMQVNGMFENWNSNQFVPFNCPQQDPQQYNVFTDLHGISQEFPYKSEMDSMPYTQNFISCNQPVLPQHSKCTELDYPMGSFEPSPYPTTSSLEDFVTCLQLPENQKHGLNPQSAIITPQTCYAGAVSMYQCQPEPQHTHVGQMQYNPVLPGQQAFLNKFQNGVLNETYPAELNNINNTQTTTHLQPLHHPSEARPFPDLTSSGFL

[3] = molecular target: human AhR (Homo sapiens, UniProt P35869); details: 24 hours incubation, reporter cells from human Huh7 cells expressing human AhR and ARNT
human AhR, sequence (P27540 whole entry partner, one chain of several): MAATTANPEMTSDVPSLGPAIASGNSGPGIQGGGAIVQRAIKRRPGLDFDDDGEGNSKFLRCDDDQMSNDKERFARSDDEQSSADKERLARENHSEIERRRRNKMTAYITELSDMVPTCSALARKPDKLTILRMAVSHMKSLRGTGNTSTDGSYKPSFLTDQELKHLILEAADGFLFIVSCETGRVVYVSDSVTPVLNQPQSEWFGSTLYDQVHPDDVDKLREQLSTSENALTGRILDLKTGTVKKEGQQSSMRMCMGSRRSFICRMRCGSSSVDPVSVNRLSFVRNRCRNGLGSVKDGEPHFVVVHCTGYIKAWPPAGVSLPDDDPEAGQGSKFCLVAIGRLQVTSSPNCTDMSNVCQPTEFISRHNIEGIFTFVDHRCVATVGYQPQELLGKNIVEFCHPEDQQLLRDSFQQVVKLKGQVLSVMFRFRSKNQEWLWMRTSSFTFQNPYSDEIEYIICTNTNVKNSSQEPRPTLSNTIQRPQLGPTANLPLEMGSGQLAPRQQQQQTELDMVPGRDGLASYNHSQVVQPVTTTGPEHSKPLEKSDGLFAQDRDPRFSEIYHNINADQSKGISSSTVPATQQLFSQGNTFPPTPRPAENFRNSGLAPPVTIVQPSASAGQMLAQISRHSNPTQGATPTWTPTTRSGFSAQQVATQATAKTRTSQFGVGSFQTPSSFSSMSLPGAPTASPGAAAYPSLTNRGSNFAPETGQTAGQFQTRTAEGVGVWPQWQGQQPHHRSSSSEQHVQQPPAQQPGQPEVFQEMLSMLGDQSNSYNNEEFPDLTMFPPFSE
Experimental: Each was incubated for 24 hours with reporter cells made from human Huh7 cells expressing human AhR and ARNT with luciferase expressed behind a genetic response element that responds to dimerized AhR/ARNT.
After incubation, the medium was aspirated and a detection reagent was added followed by a measurement of the relative luminescent units compared to a negative control of DMSO.

Compound	Amount of indirubin in % Q (measured amount in solution divided by theoretical maximum) ([1]; 5 min) [% Q]	Amount of indirubin in solution ([1]; 5 min) [µg/L]	Amount of indirubin in % Q (measured amount in solution divided by theoretical maximum) ([1]; 10 min) [% Q]	Amount of indirubin in solution ([1]; 10 min) [µg/L]	Amount of indirubin in % Q (measured amount in solution divided by theoretical maximum) ([1]; 20 min) [% Q]	Amount of indirubin in solution ([1]; 20 min) [µg/L]	Amount of indirubin in % Q (measured amount in solution divided by theoretical maximum) ([1]; 30 min) [% Q]	Amount of indirubin in solution ([1]; 30 min) [µg/L]	Amount of indirubin in % Q (measured amount in solution divided by theoretical maximum) ([1]; 60 min) [% Q]	Amount of indirubin in solution ([1]; 60 min) [µg/L]	Amount of indirubin in % Q (measured amount in solution divided by theoretical maximum) ([1]; 90 min) [% Q]	Amount of indirubin in solution ([1]; 90 min) [µg/L]	Amount of indirubin in % Q (measured amount in solution divided by theoretical maximum) ([1]; 120 min) [% Q]	Amount of indirubin in solution ([1]; 120 min) [µg/L]	Release of indirubin, of the total amount of indirubin ([1]; FaSSIF, summary of Tables 1 and 2)	Agonism of the aryl hydrocarbon receptor [2]	Activation of the AhR receptor (fold activation relative to DMSO, FIG. 4) [3]	Agonism of the aryl hydrocarbon receptor ([2]; listed as Indigo)
O=C1Nc2ccccc2/C1=C1/Nc2ccccc2C1=O [Synthetic Indirubin, indirubin]	0.02	0.02	0.03	0.03	0.03	0.03	0.03	0.03	0.04	0.04	0.05	0.05	0.07	0.07	Less than 0.1%	potent agonists	potent activator	–
O=C1/C(=C2\Nc3ccccc3C2=O)Nc2ccccc21 [indigo]	–	–	–	–	–	–	–	–	–	–	–	–	–	–	–	potent agonists	–	less potent than indirubin
